Data on ten compounds can be found in PubChem BioAssay (NCI).

Some test systems named below: A549 NSCLC; SF-268 CNS; NCI-H522 lung; COLO 205 colon; SW-620 colon; MOLT-4 leukemia; HCT-116 colon; HOP-92 NSCLC; OVCAR-3 ovarian; SK-MEL-2 melanoma.
Test in all cases: NCI-60 cell line screen, 48 h

Each structure is given as a SMILES string. Values joined by “and” are separate entries in the source; they are usually repeats but may differ in a detail not shown here. Identical values can stand only once.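 These data come from cells grown in 96-well plates and exposed to compound for 48 hours at five concentrations. The concentration for 50% growth inhibition is given as GI50. The concentration for full growth arrest is given as TGI.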

Consider `CC1Cc2c(N(C)C)ncnc2N(C)c2ccc(Cl)cc21` (stereo unspecified), for which the GI50 in the experiment on A549 NSCLC was 10.7 µM; in the experiment with SF-268 CNS it was 8.09 µM; in the experiment on NCI-H522 lung, 2.79 µM; in the experiment on COLO 205 colon, 2.44 µM; in the experiment with SW-620 colon it was 3.35 µM; with MOLT-4 leukemia it was 3.52 µM. The GI50 is 3.48 µM in the experiment on HCT-116 colon, 11 µM in the experiment with HOP-92 NSCLC, 2.51 µM in the experiment with OVCAR-3 ovarian and 5.88 µM with SK-MEL-2 melanoma. Besides, the TGI was greater than 100 µM in the experiment with A549 NSCLC; greater than 100 µM with SF-268 CNS; 35.3 µM in the experiment on NCI-H522 lung; 6.55 µM in the experiment with COLO 205 colon; greater than 100 µM with SW-620 colon; 27.3 µM in the experiment with MOLT-4 leukemia. In addition, the TGI in the experiment on HCT-116 colon came to 23.6 µM; with HOP-92 NSCLC it was 69.6 µM; in the experiment with OVCAR-3 ovarian, 8.88 µM; with SK-MEL-2 melanoma it was 57.3 µM.
As to `Cn1c(=O)n(-c2ccc(C(C)(C)C#N)cc2)c2c3cc(-c4cnc5ccccc5c4)ccc3ncc21`, the GI50 is 0.0102 µM and 0.00594 µM and < 0.01 µM in the experiment on A549 NSCLC; 0.0126 µM and 0.00657 µM and < 0.0109 µM in the experiment with SF-268 CNS; < 0.0107 µM and 0.00646 µM and < 0.0112 µM with NCI-H522 lung; 0.0231 µM and 0.00593 µM in the experiment with COLO 205 colon; 0.0163 µM and 0.00734 µM and < 0.0116 µM in the experiment on SW-620 colon; 0.025 µM and 0.00703 µM and 0.0148 µM in the experiment on MOLT-4 leukemia. The GI50 in the experiment on HCT-116 colon was 0.0312 µM and 0.00938 µM and 0.0298 µM; in the experiment with HOP-92 NSCLC, < 0.01 µM and 0.00431 µM; in the experiment on OVCAR-3 ovarian, < 0.01 µM and 0.00609 µM and 0.0101 µM; in the experiment with SK-MEL-2 melanoma, 0.012 µM and 0.00598 µM and 0.0137 µM. For the same compound, the TGI was greater than 100 µM with SF-268 CNS; 0.702 µM and 0.938 µM with COLO 205 colon; greater than 100 µM with SW-620 colon; greater than 100 µM with HCT-116 colon; 0.0622 µM and 0.122 µM and 0.0651 µM in the experiment with HOP-92 NSCLC; 0.0505 µM and 0.292 µM and 0.0744 µM in the experiment with SK-MEL-2 melanoma.
In the case of `CC1CCC(O)C(C(O)CC2CC(=O)N(C)C(=O)C2)C1` (stereo unspecified), the TGI in the experiment on A549 NSCLC, with SF-268 CNS, in the experiment on NCI-H522 lung, in the experiment with COLO 205 colon, with SW-620 colon and in the experiment with MOLT-4 leukemia was greater than 100 µM throughout. Also, the TGI in the experiment on HCT-116 colon, in the experiment on HOP-92 NSCLC and in the experiment with OVCAR-3 ovarian was greater than 100 µM in each case.
Take `CCCC/C(=N\N=C(N)N)c1ccc(F)cc1`: the GI50 was 4.66 µM in the experiment with A549 NSCLC; 5.58 µM in the experiment on SF-268 CNS; 3.79 µM with NCI-H522 lung; 1.78 µM in the experiment on COLO 205 colon; 3.35 µM with MOLT-4 leukemia; 3.51 µM in the experiment with HCT-116 colon. For the same compound, the GI50 was 2.13 µM with HOP-92 NSCLC, 2.9 µM in the experiment on OVCAR-3 ovarian and 3.09 µM in the experiment with SK-MEL-2 melanoma. The TGI with A549 NSCLC was 16.7 µM; with SF-268 CNS, 20.8 µM; in the experiment on NCI-H522 lung, 16.5 µM; in the experiment on COLO 205 colon, 3.41 µM; in the experiment with MOLT-4 leukemia it was 24.4 µM; in the experiment with HCT-116 colon, 14.6 µM. Also, the values for the TGI with HOP-92 NSCLC, in the experiment on OVCAR-3 ovarian and in the experiment on SK-MEL-2 melanoma were 8.93 µM, 9.5 µM and 9.4 µM, respectively.
With `COC(=O)C(CC=O)C(=O)C(=O)Nc1cccc(C(F)(F)F)c1` (stereo unspecified), the TGI in the experiment with A549 NSCLC, with SF-268 CNS, in the experiment with NCI-H522 lung, in the experiment with SW-620 colon, in the experiment on MOLT-4 leukemia and in the experiment with HCT-116 colon was greater than 100 µM in each case. Further, the TGI in the experiment with HOP-92 NSCLC, in the experiment with OVCAR-3 ovarian and in the experiment with SK-MEL-2 melanoma was greater than 100 µM in each case.
Consider `CC(=O)[CH-]C(=O)c1ccccc1.CC(=O)[CH-]C(=O)c1ccccc1.[O]=[U+2]=[O]`, for which the GI50 was 31 µM in the experiment with A549 NSCLC; 58.2 µM in the experiment on SF-268 CNS; 65.2 µM in the experiment with NCI-H522 lung; 28.4 µM in the experiment with COLO 205 colon; 35.3 µM with SW-620 colon; 32.3 µM in the experiment with MOLT-4 leukemia. For the same compound, the GI50 was 39.9 µM in the experiment on HOP-92 NSCLC, 88.2 µM with OVCAR-3 ovarian and 37.4 µM with SK-MEL-2 melanoma. Further, the TGI is greater than 100 µM in the experiment with A549 NSCLC; greater than 100 µM in the experiment with SF-268 CNS; greater than 100 µM in the experiment on NCI-H522 lung; 78.5 µM in the experiment on COLO 205 colon; greater than 100 µM in the experiment with SW-620 colon; greater than 100 µM in the experiment with MOLT-4 leukemia. Moreover, the TGI in the experiment with HOP-92 NSCLC, in the experiment on OVCAR-3 ovarian and in the experiment on SK-MEL-2 melanoma was greater than 100 µM in each case.
As for `CC(C)OP(=O)(CP(=O)(OC(C)C)OC(C)C)OC(C)C.[CH3][Sn]([Br])([Br])[Br]`, the GI50 with A549 NSCLC, with SF-268 CNS, in the experiment with NCI-H522 lung, in the experiment with COLO 205 colon, with SW-620 colon and with MOLT-4 leukemia was greater than 100 µM in each case. The GI50 in the experiment on HOP-92 NSCLC, with OVCAR-3 ovarian and with SK-MEL-2 melanoma was greater than 100 µM throughout. Moreover, the TGI in the experiment with A549 NSCLC, in the experiment on SF-268 CNS, with NCI-H522 lung, in the experiment with COLO 205 colon, with SW-620 colon and in the experiment with MOLT-4 leukemia was greater than 100 µM in each case. The TGI in the experiment on HOP-92 NSCLC, in the experiment on OVCAR-3 ovarian and in the experiment with SK-MEL-2 melanoma was greater than 100 µM each time.
`COC(=O)/C(C#N)=C1\N=NNN1CCCN1CCOCC1`: the TGI in the experiment with A549 NSCLC, in the experiment on NCI-H522 lung, with COLO 205 colon, in the experiment on SW-620 colon, in the experiment with MOLT-4 leukemia and in the experiment on HCT-116 colon was greater than 100 µM in each case. The TGI in the experiment with HOP-92 NSCLC and with OVCAR-3 ovarian was greater than 100 µM each time.
On to `CC[C@@]1(OC(=O)CN)C(=O)OCc2c1cc1n(c2=O)Cc2cc3cc(N)ccc3nc2-1`, for which the GI50 with A549 NSCLC is less than 0.0176 µM; in the experiment with SF-268 CNS, less than 0.01 µM; in the experiment with NCI-H522 lung, 0.0139 µM; with COLO 205 colon, 0.287 µM; with SW-620 colon it was 0.0231 µM; in the experiment with MOLT-4 leukemia, less than 0.01 µM. Moreover, the results for the GI50 in the experiment with HOP-92 NSCLC, in the experiment with OVCAR-3 ovarian and with SK-MEL-2 melanoma were less than 0.01 µM, 0.181 µM and less than 0.0441 µM, respectively. Further, the TGI in the experiment with A549 NSCLC was 1.45 µM; with NCI-H522 lung, 0.34 µM; in the experiment with COLO 205 colon, 2.22 µM; with SW-620 colon, greater than 100 µM; with HOP-92 NSCLC, 0.0705 µM; in the experiment on OVCAR-3 ovarian it was 0.848 µM. In addition, in the experiment with SK-MEL-2 melanoma, the TGI was determined as 0.421 µM.
Regarding `CC1=C(C#N)C(N)=C2C(C)=C(C#N)C(N)=C12`, the TGI with A549 NSCLC, in the experiment with SF-268 CNS, in the experiment with NCI-H522 lung, with COLO 205 colon, in the experiment with SW-620 colon and in the experiment on MOLT-4 leukemia was greater than 100 µM throughout. For the same compound, the TGI in the experiment with HCT-116 colon, with HOP-92 NSCLC and with OVCAR-3 ovarian was greater than 100 µM each time.
